{"source": "patent US11219625B2", "about": "“Inhibitors of N-linked glycosylation and methods using same” (YALE UNIVERSITY, priority 2015, dated 2022)", "key": {"EGFR": {"test_system": "EGFR", "assay": "Surface biotinylation of EGFR, H3255 cells", "format": "cell-based", "conditions": "H3255, 10 μM NGI-1, 24 h", "method": "FIGS. 3A-3F illustrate the finding that NGI-1 disrupts EGFR glycosylation and cell surface expression. FIG. 3A illustrates EGFR western blots from H3255 treated with or without 10 μM NGI-1 for 24 h. Molecular weight size shifts are compared to PNGase digestion and tunicamycin treatment alone. FIG. 3B illustrates EGFR localization in H3255 cells after 24 h 10 μM NGI-1 treatment analyzed by western blot. Plasma membrane proteins present on the surface of H3255 cells were biotinylated using a non-permeable form of biotin, sulfo-NHS—SS-biotin, and precipitated by streptavidin agarose beads. Biotin-labeled plasma membrane proteins and the fraction of non-biotinylated proteins were subjected to SDS-PAGE and analyzed by western blot against EGFR. FIG. 3C illustrates EGFR localization in H3255 cells after 24 h 10 μM NGI-1 treatment analyzed by confocal microscopy. H3255 cells were subjected to immunofluorescence for EGFR protein (red) counterstained with (CRT; green) and colocalization was determined by confocal microscopy. Nuclei were counterstained with ToPro3 (cyan). […] Bar, 10 μm. FIG. 3D illustrates quantification of colocalization using Image J Colormap Software. […] ITB1 localization after 10 μM NGI-1 for 48 h analyzed by (FIG. 3E) surface biotinylation (FIG. 3F) confocal microscopy (green). […]"}, "N-linked glycosylation": {"test_system": "N-linked glycosylation", "assay": "D54-ERLucT cell based luciferase assay for inhibition of N-linked glycosylation", "from_the_text": "The HTS approach using the bioluminescent N-linked glycosylation reporter (CCR 2011) in D54-ERLucT and D54-LucT cells has been previously described (Bennett, et al., Transl Oncol 2013, 6, 382-391). Briefly, the primary cell-based screen detects site occupancy of NLG sequons using a modified luciferase protein translated into the ER. […] The methodology for the primary (D54-ERlucT), secondary (D54-LucT), and tertiary (luciferase inhibition) screens as well and toxicity assays with CelltitreGlo are deposited in Pubchem (AID 588693).\nThe primary screen was developed in the D54 glioma cell line using a modified P. pyralis luciferase gene (ER-LucT) that is ER translated and glycosylated at three N-linked glycosylation consensus sequences. Glycosylation of the reporter inactivates luciferase enzymatic activity providing a robust methodology to detect inhibition of this process. D54 cells expressing a non-ER translated luciferase (LucT) insensitive to inhibition of N-linked glycoysation were used as a secondary screen for false positives. The primary screen was performed in duplicate and values were normalized to the average of positive control wells (Tunicamycin) minus averaged neutral vehicle treated wells per run. Compounds with replicate activity greater than three standard deviations above the mean average of control wells were selected for further study. A subset of 1,845 compounds met this criterion, and were advanced to simultaneous retesting in both the primary screen and a secondary (false positive) cell-based screen. […] Compounds were further triaged from consideration by consulting the Pubchem bioassay database and deprioritizing compounds showing a promiscuity rate higher than 5% across assays or by removing PAINS scaffolds (Baell, et al., J Med Chem 2010, 53, 2719-2740). Remaining compounds were assessed by medicinal chemistry review to score synthetic tractability and known issues with instability, poor solubility, or toxicity. This analysis yielded 39 compounds that were tested in a cell-free assay to detect luciferase inhibitors (Auld, et al., Proc Natl Acad Sci USA 2010, 107, 4878-4883) and by western blot analysis to detect gel mobility changes of the luciferase reporter, consistent with inhibition of N-linked glycosylation. This approach identified one aminobenzamidosulfonamide compound that blocked N-linked glycosylation.\nTo better understand the connection between structure and activity, analogs were prepared and tested in the D54-ERLucT cell based assay for inhibition of N-linked glycosylation (FIG. 1B). The assay was used to estimate and compare AC40 values among analogs and to guide the design of improved compounds that inhibited N-linked glycosylation. This effort generated 36 unique compounds with modifications to the amine component of the sulfonamide functionality (red), the pyrrolidine moiety (blue) or the methylaminothiazole group (green). Generally, incorporation of larger sulfonamides (i.e., larger secondary amines appended to the sulphone) was not well tolerated, resulting in erosion of potency (7 analogs). However, steric interactions could be mitigated by the introduction of a hydrogen bond accepting oxygen in a larger cyclic amine. Thus, morpholine was determined to be an acceptable surrogate for the dimethylamine component of the sulfonamide (FIGS. 1A-1D). The pyrrolidine group (blue) was replaced with various alkyl, cycloalkyl, and amine groups (7 compounds). The aminothiazole moiety was derivatized most extensively of all three regions (green highlighted area, 22 analogs). […] Analogs with the highest potency in the luciferase assay were retested with western blot analysis to insure that measurements of luciferase activation corresponded to loss of N-linked glycosylation."}, "[1]": {"conditions": "D54-ERLucT cells, luciferase activation"}}, "data": [{"smiles": "Cc1cnc(NC(=O)c2cc(S(=O)(=O)N(C)C)ccc2N2CCCC2)s1", "note": "[NGI-1, 5-(N,N-Dimethylsulfamoyl)-N-(5-methylthiazol-2-yl)-2-(pyrrolidin-1-yl)benzamide]", "values": [{"measurement": "EGFR distribution, biotinylated vs non-biotinylated fraction", "setting": "EGFR", "value": "predominantly found in the non-biotinylated intracellular fraction"}, {"measurement": "NLG Inhibition ASSAY Potency Mean AC40", "setting": "N-linked glycosylation; [1]", "value": 170, "unit": "nM"}, {"measurement": "NLG Inhibition max act, %", "setting": "N-linked glycosylation; [1]", "value": 321.4, "unit": "%"}, {"measurement": "IC50", "setting": "N-linked glycosylation; luminescent activity, estimated, FIG. 1C, read-out: IC50 in intact D54 ER-LucT cells in culture", "value": 1060, "unit": "nM"}]}]}
